Measurements as given in PubChem BioAssay (NCI).
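Values below derive from 48-hour exposures of cells grown in 96-well plates, with endpoints linearly interpolated between the two concentrations bracketing the appropriate inhibition level. TGI marks complete inhibition of growth.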

How the values were obtained:
Assay in all cases: NCI-60 cell line screen, 48 h
UACC-62 melanoma = test system: UACC-62 melanoma
NCI-H23 lung = test system: NCI-H23 lung
UO-31 renal = test system: UO-31 renal
TK-10 renal = test system: TK-10 renal
LOX IMVI melanoma = test system: LOX IMVI melanoma
SNB-19 CNS = test system: SNB-19 CNS
MALME-3M melanoma = test system: MALME-3M melanoma
SF-268 CNS = test system: SF-268 CNS
A549 NSCLC = test system: A549 NSCLC
U251 CNS = test system: U251 CNS
SW-620 colon = test system: SW-620 colon
HT29 colon = test system: HT29 colon
M19-MEL melanoma = test system: M19-MEL melanoma
UACC-257 melanoma = test system: UACC-257 melanoma
COLO 205 colon = test system: COLO 205 colon
SK-MEL-2 melanoma = test system: SK-MEL-2 melanoma
CCRF-CEM leukemia = test system: CCRF-CEM leukemia
NCI-H460 lung = test system: NCI-H460 lung
EKVX NSCLC = test system: EKVX NSCLC
IGROV1 ovarian = test system: IGROV1 ovarian
SK-MEL-5 melanoma = test system: SK-MEL-5 melanoma
KM20L2 colon = test system: KM20L2 colon
HL-60(TB) leukemia = test system: HL-60(TB) leukemia
NCI-H522 lung = test system: NCI-H522 lung
DMS 273 small cell lung = test system: DMS 273 small cell lung
A498 renal = test system: A498 renal
K-562 leukemia = test system: K-562 leukemia
SF-539 CNS = test system: SF-539 CNS
HCC-2998 colon = test system: HCC-2998 colon
SNB-78 CNS = test system: SNB-78 CNS
RXF 393 renal = test system: RXF 393 renal
SNB-75 CNS = test system: SNB-75 CNS
NCI-H226 lung = test system: NCI-H226 lung
RXF-631 renal = test system: RXF-631 renal
HCT-15 colon = test system: HCT-15 colon
SF-295 CNS = test system: SF-295 CNS
SK-MEL-28 melanoma = test system: SK-MEL-28 melanoma
OVCAR-4 ovarian = test system: OVCAR-4 ovarian
KM12 colon = test system: KM12 colon
OVCAR-8 ovarian = test system: OVCAR-8 ovarian
CAKI-1 renal = test system: CAKI-1 renal
HOP-18 NSCLC = test system: HOP-18 NSCLC
ACHN renal = test system: ACHN renal
786-0 renal = test system: 786-0 renal
SN12C renal = test system: SN12C renal
SK-OV-3 ovarian = test system: SK-OV-3 ovarian
M14 melanoma = test system: M14 melanoma
HCT-116 colon = test system: HCT-116 colon
OVCAR-3 ovarian = test system: OVCAR-3 ovarian
LXFL 529 NSCLC = test system: LXFL 529 NSCLC
OVCAR-5 ovarian = test system: OVCAR-5 ovarian
RPMI-8226 leukemia = test system: RPMI-8226 leukemia
HOP-92 NSCLC = test system: HOP-92 NSCLC
DMS 114 small cell lung = test system: DMS 114 small cell lung
XF 498 CNS = test system: XF 498 CNS
DLD-1 colon = test system: DLD-1 colon
HOP-62 NSCLC = test system: HOP-62 NSCLC
SR leukemia = test system: SR leukemia
MOLT-4 leukemia = test system: MOLT-4 leukemia

CCOC(=O)CNC1C(NC(C)=O)C(OC)OC2COC(c3ccccc3)OC21 (stereo unspecified)
TGI (UACC-62 melanoma): > 100 µM
TGI (NCI-H23 lung): > 100 µM
TGI (UO-31 renal): > 100 µM
TGI (TK-10 renal): > 100 µM
TGI (LOX IMVI melanoma): > 100 µM
TGI (SNB-19 CNS): > 100 µM
TGI (MALME-3M melanoma): > 100 µM
TGI (SF-268 CNS): > 100 µM
TGI (A549 NSCLC): > 100 µM
TGI (U251 CNS): > 100 µM
TGI (SW-620 colon): > 100 µM
TGI (HT29 colon): > 100 µM
TGI (M19-MEL melanoma): > 100 µM
TGI (UACC-257 melanoma): > 100 µM
TGI (COLO 205 colon): > 100 µM
TGI (SK-MEL-2 melanoma): > 100 µM
TGI (CCRF-CEM leukemia): > 100 µM
TGI (NCI-H460 lung): > 100 µM
TGI (EKVX NSCLC): > 100 µM
TGI (IGROV1 ovarian): > 100 µM
TGI (SK-MEL-5 melanoma): > 100 µM
TGI (KM20L2 colon): > 100 µM
TGI (HL-60(TB) leukemia): > 100 µM
TGI (NCI-H522 lung): > 100 µM
TGI (DMS 273 small cell lung): > 100 µM
TGI (A498 renal): > 100 µM
TGI (K-562 leukemia): > 100 µM
TGI (SF-539 CNS): > 100 µM
TGI (HCC-2998 colon): > 100 µM
TGI (SNB-78 CNS): > 100 µM
TGI (RXF 393 renal): > 100 µM
TGI (SNB-75 CNS): > 100 µM
TGI (NCI-H226 lung): > 100 µM
TGI (RXF-631 renal): > 100 µM
TGI (HCT-15 colon): > 100 µM
TGI (SF-295 CNS): > 100 µM
TGI (SK-MEL-28 melanoma): > 100 µM
TGI (OVCAR-4 ovarian): > 100 µM
TGI (KM12 colon): > 100 µM
TGI (OVCAR-8 ovarian): > 100 µM
TGI (CAKI-1 renal): > 100 µM
TGI (HOP-18 NSCLC): > 100 µM
TGI (ACHN renal): > 100 µM
TGI (786-0 renal): > 100 µM
TGI (SN12C renal): > 100 µM
TGI (SK-OV-3 ovarian): > 100 µM
TGI (M14 melanoma): > 100 µM
TGI (HCT-116 colon): > 100 µM
TGI (OVCAR-3 ovarian): > 100 µM
TGI (LXFL 529 NSCLC): > 100 µM
TGI (OVCAR-5 ovarian): > 100 µM
TGI (RPMI-8226 leukemia): > 100 µM
TGI (HOP-92 NSCLC): > 100 µM
TGI (DMS 114 small cell lung): > 100 µM

CC1=C2C(=O)C(C)(C)C=C2C(=O)[C@](C)(O)C12CC2
TGI (UACC-62 melanoma): > 1 µM
TGI (NCI-H23 lung): > 1 µM
TGI (UO-31 renal): > 1 µM
TGI (XF 498 CNS): > 1 µM
TGI (TK-10 renal): > 1 µM
TGI (LOX IMVI melanoma): > 1 µM
TGI (SNB-19 CNS): > 1 µM
TGI (MALME-3M melanoma): > 0.946 µM
TGI (SF-268 CNS): > 1 µM
TGI (A549 NSCLC): > 1 µM
TGI (U251 CNS): > 1 µM
TGI (SW-620 colon): > 1 µM
TGI (HT29 colon): > 1 µM
TGI (M19-MEL melanoma): > 1 µM
TGI (UACC-257 melanoma): > 1 µM
TGI (COLO 205 colon): > 1 µM
TGI (SK-MEL-2 melanoma): > 1 µM
TGI (CCRF-CEM leukemia): > 1 µM
TGI (NCI-H460 lung): > 1 µM
TGI (EKVX NSCLC): > 1 µM
TGI (IGROV1 ovarian): > 1 µM
TGI (SK-MEL-5 melanoma): > 0.612 µM
TGI (KM20L2 colon): > 1 µM
TGI (HL-60(TB) leukemia): 0.66 µM
TGI (DLD-1 colon): > 1 µM
TGI (NCI-H522 lung): 0.7 µM
TGI (DMS 273 small cell lung): > 0.464 µM
TGI (A498 renal): > 1 µM
TGI (K-562 leukemia): > 1 µM
TGI (SF-539 CNS): > 1 µM
TGI (HCC-2998 colon): > 1 µM
TGI (SNB-78 CNS): > 1 µM
TGI (RXF 393 renal): > 1 µM
TGI (SNB-75 CNS): > 1 µM
TGI (NCI-H226 lung): > 1 µM
TGI (HCT-15 colon): > 1 µM
TGI (SF-295 CNS): > 1 µM
TGI (SK-MEL-28 melanoma): > 1 µM
TGI (HOP-62 NSCLC): > 1 µM
TGI (OVCAR-4 ovarian): > 1 µM
TGI (KM12 colon): > 1 µM
TGI (OVCAR-8 ovarian): > 1 µM
TGI (CAKI-1 renal): > 1 µM
TGI (HOP-18 NSCLC): > 1 µM
TGI (ACHN renal): > 1 µM
TGI (786-0 renal): > 1 µM
TGI (SN12C renal): > 1 µM
TGI (SK-OV-3 ovarian): > 1 µM
TGI (M14 melanoma): > 1 µM
TGI (HCT-116 colon): > 1 µM
TGI (SR leukemia): > 1 µM
TGI (OVCAR-3 ovarian): > 1 µM
TGI (LXFL 529 NSCLC): > 1 µM
TGI (OVCAR-5 ovarian): > 1 µM
TGI (RPMI-8226 leukemia): > 1 µM
TGI (MOLT-4 leukemia): > 1 µM
TGI (HOP-92 NSCLC): > 1 µM

CC(C(=O)c1ccccc1)C1(O)C(=O)Nc2ccccc21 (stereo unspecified)
TGI (UACC-62 melanoma): > 100 µM
TGI (NCI-H23 lung): > 100 µM
TGI (UO-31 renal): > 100 µM
TGI (TK-10 renal): > 100 µM
TGI (LOX IMVI melanoma): > 100 µM
TGI (SNB-19 CNS): > 100 µM
TGI (MALME-3M melanoma): > 100 µM
TGI (SF-268 CNS): > 100 µM
TGI (A549 NSCLC): > 100 µM
TGI (U251 CNS): > 100 µM
TGI (SW-620 colon): > 100 µM
TGI (HT29 colon): > 100 µM
TGI (M19-MEL melanoma): > 100 µM
TGI (UACC-257 melanoma): > 100 µM
TGI (COLO 205 colon): > 100 µM
TGI (SK-MEL-2 melanoma): > 100 µM
TGI (CCRF-CEM leukemia): > 100 µM
TGI (NCI-H460 lung): > 100 µM
TGI (EKVX NSCLC): > 100 µM
TGI (IGROV1 ovarian): > 100 µM
TGI (SK-MEL-5 melanoma): > 100 µM
TGI (KM20L2 colon): > 100 µM
TGI (DLD-1 colon): > 100 µM
TGI (NCI-H522 lung): > 100 µM
TGI (DMS 273 small cell lung): > 100 µM
TGI (A498 renal): > 100 µM
TGI (K-562 leukemia): > 100 µM
TGI (SF-539 CNS): > 100 µM
TGI (HCC-2998 colon): > 100 µM
TGI (SNB-78 CNS): > 100 µM
TGI (RXF 393 renal): > 100 µM
TGI (SNB-75 CNS): > 100 µM
TGI (NCI-H226 lung): > 100 µM
TGI (RXF-631 renal): > 100 µM
TGI (HCT-15 colon): > 100 µM
TGI (SF-295 CNS): > 100 µM
TGI (SK-MEL-28 melanoma): > 100 µM
TGI (HOP-62 NSCLC): > 100 µM
TGI (OVCAR-4 ovarian): > 100 µM
TGI (KM12 colon): > 100 µM
TGI (CAKI-1 renal): > 100 µM
TGI (HOP-18 NSCLC): > 100 µM
TGI (ACHN renal): > 100 µM
TGI (786-0 renal): > 100 µM
TGI (SN12C renal): > 100 µM
TGI (SK-OV-3 ovarian): > 100 µM
TGI (M14 melanoma): > 100 µM
TGI (HCT-116 colon): > 100 µM
TGI (SR leukemia): > 100 µM
TGI (OVCAR-3 ovarian): > 100 µM
TGI (OVCAR-5 ovarian): > 100 µM
TGI (RPMI-8226 leukemia): > 100 µM
TGI (MOLT-4 leukemia): > 100 µM
TGI (HOP-92 NSCLC): > 100 µM
TGI (DMS 114 small cell lung): > 100 µM
